# Assay results reported in US10358663B2, “Method of production of 2,4-dihydroxybutyric acid” (ADISSEO FRANCE S.A.S., priority 2010, dated 2019).
# Positions count from the first letter of the chain named.
# Tests used:
# malic enzyme = target: T1, malic enzyme (Rattus norvegicus, UniProt P13697); settings: cited from earlier work
# T1 sequence (P13697 1-572): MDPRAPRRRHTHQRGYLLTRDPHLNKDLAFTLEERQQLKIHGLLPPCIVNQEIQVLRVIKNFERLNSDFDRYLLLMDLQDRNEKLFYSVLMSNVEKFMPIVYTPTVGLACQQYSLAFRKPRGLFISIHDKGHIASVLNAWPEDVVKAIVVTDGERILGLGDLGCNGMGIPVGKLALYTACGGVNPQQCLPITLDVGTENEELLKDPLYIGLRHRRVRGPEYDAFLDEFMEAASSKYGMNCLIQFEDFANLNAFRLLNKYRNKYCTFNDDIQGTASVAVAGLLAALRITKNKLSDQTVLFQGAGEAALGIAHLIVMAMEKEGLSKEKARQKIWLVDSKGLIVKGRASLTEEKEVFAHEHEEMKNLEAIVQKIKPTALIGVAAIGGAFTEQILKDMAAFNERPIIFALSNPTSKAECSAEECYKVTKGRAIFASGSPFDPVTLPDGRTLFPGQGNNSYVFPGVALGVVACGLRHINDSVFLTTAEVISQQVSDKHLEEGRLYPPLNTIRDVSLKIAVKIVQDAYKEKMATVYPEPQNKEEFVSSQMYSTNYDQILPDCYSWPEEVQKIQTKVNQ
# [1] = target: E. coli aspartate kinase LysC variant E119G T344M, SEQ ID NO: 41 (Escherichia coli, UniProt P08660, E119G/T344M); experiment: Lysine inhibition of malate kinase activity, LysC E119G T344M; type: biochemical; settings: elevated lysine concentrations
# Description: (§1) The assay mixture contained 50 mM Hepes (pH 7.5), 50 mM KCl, 5 mM MgCl2, 0.24 mM NADH, 0.96 mM ATP, 0.96 mM PEP, 9 μg/mL of lactate dehydrogenase (Sigma, L2500), 12.4 μg/mL pyruvate kinase (Sigma, P1506), and appropriate amounts of purified aspartate (malate) kinase. Reactions were started by adding 50 mM (L)-aspartate or (L)-malate. Enzymatic assays were carried out at 30° C. in 96-well flat bottomed microtiter plates in a final volume of 250 μL. The reactions were followed by the characteristic absorption of NADH at 340 nm in a microplate reader (BioRad 680XR).
# (§2) Expression and purification of enzymes: Protein expression for the His-tagged enzymes LysC E119G, LysC E119G E250K, LysC E119G T344M, LysC E119G S345L, LysC E119G T352I was carried out as described in Example 1.
# (§3) Enzymatic assay: Malate kinase activities were assayed as described in Example 1. Lysine concentration in the reaction buffer was varied.
# [2] = target: E. coli aspartate kinase LysC variant E119G S345L, SEQ ID NO: 45 (Escherichia coli, UniProt P08660, E119G/S345L); experiment: Lysine inhibition of malate kinase activity, LysC E119G S345L; type: biochemical; settings: elevated lysine concentrations
# Description: as §1, §2, §3
# [3] = target: E. coli aspartate kinase LysC variant E119G E250K, SEQ ID NO: 39 (Escherichia coli, UniProt P08660, E119G/E250K); experiment: Lysine inhibition of malate kinase activity, LysC E119G E250K; type: biochemical; settings: elevated lysine concentrations
# Description: as §1, §2, §3
# [4] = target: T2, Metallosphaera sedula succinic semialdehyde reductase Ms-SSR variant N43H, SEQ ID NO: 227 (Metallosphaera sedula, UniProt A4YGN0, N43H); experiment: Malate semialdehyde reductase assay, Ms-SSR N43H; type: biochemical; settings: pH 7.5, 30° C.
# T2 sequence (A4YGN0 1-360 N43H): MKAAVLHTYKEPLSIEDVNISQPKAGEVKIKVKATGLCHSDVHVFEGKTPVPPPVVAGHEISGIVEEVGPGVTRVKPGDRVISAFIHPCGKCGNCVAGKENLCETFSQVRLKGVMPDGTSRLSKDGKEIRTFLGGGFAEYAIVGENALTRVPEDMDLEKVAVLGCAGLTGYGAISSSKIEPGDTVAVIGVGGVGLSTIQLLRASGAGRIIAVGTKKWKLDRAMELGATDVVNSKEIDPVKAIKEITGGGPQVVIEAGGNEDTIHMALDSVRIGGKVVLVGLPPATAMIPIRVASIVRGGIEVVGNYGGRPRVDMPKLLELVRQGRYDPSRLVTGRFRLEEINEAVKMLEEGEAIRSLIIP
# Description: (§4) Test for Malate Semialdehyde Reductase Activity: Reaction: (L)-Malate semialdehyde+NAD(P)H→(L)-2,4-dihydroxybutyric acid+NAD(P)
# (§5) The assay mixture contained 200 mM Hepes (pH 7.5), 50 mM KCl, 5 mM MgCl2, 0.24 mM NADH or NADPH, and appropriate amounts of purified enzyme. Reactions were started by adding 10 mM (L)-malate semialdehyde (malate semialdehyde was prepared freshly for each test, see Example 4). Enzymatic assays were carried out at 30° C. in 96-well flat bottomed microtiter plates in a final volume of 250 μL. The reactions were followed by the characteristic absorption of NAD(P)H at 340 nm in a microplate reader (BioRad 680XR).
# (§6) Site-directed mutagenesis was carried out using the oligonucleotide pairs listed in Table 8 and the pMs-SSR plasmid as the template. Point mutations to change the amino acid sequences were introduced by PCR (Phusion 1U, HF buffer 20% (v/v), dNTPs 2.5 mM, direct and reverse primers 1 μM each, template plasmid 200 ng, water). When possible, plasmids created by PCR contained new restriction sites (introduced using silent mutations) in addition to the functional mutation to facilitate identification of mutated clones. The PCR products were digested by DpnI at 37° C. for 1 h to remove template DNA, and transformed into NEB 5-alpha competent E. coli cells (NEB). […]
# [5] = target: T3, Metallosphaera sedula succinic semialdehyde reductase Ms-SSR variant H39R N43H, SEQ ID NO: 81 (Metallosphaera sedula, UniProt A4YGN0, H39R/N43H); experiment: Malate semialdehyde reductase assay, Ms-SSR H39R N43H; type: biochemical; settings: pH 7.5, 30° C.
# T3 sequence (A4YGN0 1-360 H39R/N43H): T2 sequence (A4YGN0 1-360 N43H) with H39R
# Description: as §4, §5, §6
# [6] = target: T4, Metallosphaera sedula succinic semialdehyde reductase Ms-SSR, wild type, SEQ ID NO: 76 (Metallosphaera sedula, UniProt A4YGN0); experiment: Malate semialdehyde reductase assay, Ms-SSR wild type; type: biochemical; settings: pH 7.5, 30° C.
# T4 sequence (A4YGN0 1-360): T2 sequence (A4YGN0 1-360 N43H) with H43N
# Description: as §4, §5
# [7] = target: T5, Metallosphaera sedula succinic semialdehyde reductase Ms-SSR variant H39R, SEQ ID NO: 225 (Metallosphaera sedula, UniProt A4YGN0, H39R); experiment: Malate semialdehyde reductase assay, Ms-SSR H39R; type: biochemical; settings: pH 7.5, 30° C.
# T5 sequence (A4YGN0 1-360 H39R): T2 sequence (A4YGN0 1-360 N43H) with H39R, H43N
# Description: as §4, §5, §6
# E. coli aspartate kinase LysC variant E119G S345L, SEQ ID NO: 45, sequence (P08660 whole entry E119G/S345L): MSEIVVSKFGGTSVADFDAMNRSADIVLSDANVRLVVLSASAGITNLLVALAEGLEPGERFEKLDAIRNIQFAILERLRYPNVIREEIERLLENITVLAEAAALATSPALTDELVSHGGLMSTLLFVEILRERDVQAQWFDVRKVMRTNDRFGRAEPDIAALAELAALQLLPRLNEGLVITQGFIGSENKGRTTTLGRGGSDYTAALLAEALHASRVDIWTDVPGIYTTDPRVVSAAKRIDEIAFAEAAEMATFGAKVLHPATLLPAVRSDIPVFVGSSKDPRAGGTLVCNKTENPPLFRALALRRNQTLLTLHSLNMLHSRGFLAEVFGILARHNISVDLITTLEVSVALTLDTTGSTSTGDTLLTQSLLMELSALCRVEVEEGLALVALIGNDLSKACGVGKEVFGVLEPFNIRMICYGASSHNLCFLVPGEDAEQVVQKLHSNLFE
# E. coli aspartate kinase LysC variant E119G E250K, SEQ ID NO: 39, sequence (P08660 whole entry E119G/E250K): as the sequence (P08660 whole entry E119G/S345L) above, with E250K, L345S counted along it
# E. coli aspartate kinase LysC variant E119G T344M, SEQ ID NO: 41, sequence (P08660 whole entry E119G/T344M): as the sequence (P08660 whole entry E119G/S345L) above, with T344M, L345S counted along it
smiles,measurement,setting,value
"O=C(O)C(O)CCO (centres unmarked) [DHB, 2,4-dihydroxybutyric acid]",Mode of inhibition of malic enzyme,malic enzyme,competitive inhibitor
NCCCC[C@H](N)C(=O)O [lysine],sensitivity of malate kinase activity to lysine,[1],largely insensitive
same,sensitivity of malate kinase activity to lysine,[2],largely insensitive
same,sensitivity of malate kinase activity to lysine,[3],largely insensitive
"O=CC[C@H](O)C(=O)O [malate semialdehyde, (L)-malate semialdehyde]",Maximum activity,[4],4.3 μmol/(min* mgprot)
same,Maximum activity,[5],4.7 μmol/(min* mgprot)
same,Maximum activity,[6],4.9 μmol/(min* mgprot)
same,Maximum activity,[7],1.7 μmol/(min* mgprot)
